In patent US20260305608A1, “MIXTURE COMBINATIONS FOR CROP PROTECTION” (ADAMA MAKHTESHIM LTD., priority 2023, published 2026):

Legend:
S. littoralis [1] = assay: Synergistic activity against S. littoralis, 2 days after larvae exposition (% control; Colby); type: in vivo, Spodoptera littoralis
Description: (§1) A mixture combination were prepared by thoroughly mixing Tau-fluvalinate (weight %) with a crop protection chemical compound such as Flupyrimin, Isocycloseram, Methoxyfenozide and Garlic extract (weight %).
(§2) Different concentrations of each of the active ingredients may be applied to different species of insects. The percent controls are determined sometime after treatment.
(§3) A synergistic effect exists whenever the action of a combination of active ingredients is greater than the sum of the action of each of the ingredients alone. Therefore, a synergistic combination is a combination of active ingredients having an action that is greater than the sum of the action of each active ingredient alone, and a synergistically effective amount is an effective amount of a synergistic combination.
(§4) Colby's method is used to determine if synergy exists for a combination of active ingredients. According to Colby, the expected action (E) of active ingredients A+B is:
(§5) E=A+B−(AB/100) • where E=expected efficacy, A and B=the efficacy of two active ingredients A and B at a given dose.
(§6) When the percentage of control observed (O) for the combination is greater than the expected (E) percentage, there is a synergistic effect. The synergism ratio (R) is calculated as the ratio between the […].
(§7) The insecticidal compounds A (Tau fluvalinate) and B (mix partner) are formulated as equivalent compositions to eliminate the effects of differing formulation inerts on biological activity. Efficacy of the insecticidal compositions is evaluated with reference to a scale of 0% to 100% in comparison with untreated control plots. 0 means no damage and 100 means complete destruction of the harmful pests.
(§8) The experiments were conducted by applying either by synthesis/extraction or commercially available formulations of Tau fluvalinate and other mixture partners, alone or with their tank-mixed compositions with the same weight ratio. The compositions were diluted with water or some other suitable solvents to the stated concentration of the active compounds.
(§9) Each formulation with active ingredient is diluted with water or other suitable solvent(s) to the ppm (parts per million) level and biological efficacy trials on pests are conducted.

S. littoralis [2] = assay: Synergistic activity against S. littoralis, 3 days after larvae exposition (% control; Colby); type: in vivo, Spodoptera littoralis
Description: as §1, §2, §3, §4, §5, §6, §7, §8, §9

B. tabaci = assay: Synergistic activity against B. tabaci, 3 days after nymph exposition (% control; Colby); type: in vivo, Bemisia tabaci
Description: as §1, §2, §3, §4, §5, §6, §7, §8, §9

SMILES | Observed % control (O) (S. littoralis [1]; Table 1B, 10 ppm) [%] | Observed % control (O) (S. littoralis [2]; Table 3, 2 ppm) [%] | Observed % control (O) (S. littoralis [1]; Table 4B, 8 ppm) [%] | Observed % control (O) (B. tabaci; Table 4A, 0.2 ppm) [%] | other results
O=C(/N=c1\ccccn1Cc1ccc(Cl)nc1)C(F)(F)F [Flupyrimin] | 0 | – | – | – | Observed % control (O) (S. littoralis [1]; Table 1B, 1 ppm): 0%; Observed % control (O) (S. littoralis [1]; Table 1B, 100 ppm): 18%
CC(C)C(Nc1ccc(C(F)(F)F)cc1Cl)C(=O)OC(C#N)c1cccc(Oc2ccccc2)c1 (mixture of isomers) [Tau- Fluvalinate, (RS)-α-Cyano-3-phenoxybenzyl N-(2-chloro-α,α,α-trifluoro-p-tolyl)-D-valinate] | 43 | 22.5 | 45 | 10.4 | Observed % control (O) (S. littoralis [2]; Table 3, 0.2 ppm): 2.5%; Observed % control (O) (S. littoralis [2]; Table 3, 10 ppm): 67.5%; Observed % control (O) (S. littoralis [1]; Table 4B, 16 ppm): 62.5%; Observed % control (O) (B. tabaci; Table 1A, 0.1 ppm): 14%; Observed % control (O) (B. tabaci; Table 2, 20 ppm): 28.1%
CCN1OC[C@@H](NC(=O)c2ccc(C3=NO[C@@](c4cc(Cl)c(F)c(Cl)c4)(C(F)(F)F)C3)cc2C)C1=O [Isocycloseram] | – | – | 12.2 | 25.5 | –
COc1cccc(C(=O)NN(C(=O)c2cc(C)cc(C)c2)C(C)(C)C)c1C [Methoxyfenozide] | – | 70 | – | – | Observed % control (O) (S. littoralis [2]; Table 3, 1 ppm): 52.5%
